The source made the active and inactive calls.
Legend:
Cytochrome P450 3A4 = Cytochrome P450 3A4 (Homo sapiens, UniProt P08684); settings: Potency;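 also: confirmatory qHTS run detecting inhibitors and substrates of CYP3A4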
H9c2 = experiment: cells; type: functional, cell-based; settings: Rattus norvegicus, H9c2, Myocardium;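 also: confirmatory concentration-response retest of ultra-high-throughput screening hits for modulation of myocardial damage; cell death induced by hydrogen peroxide oxidative stress; compound pretreatment for 60 min then peroxide exposure for 2 h; potency is for protecting the cells against peroxide damage rather than for killing them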
Nonstructural protein 1 = Nonstructural protein 1 (Influenza A virus, UniProt Q194T2); type: functional, Influenza A virus (A/California/07/2009(H1N1))
Chain of Nonstructural protein 1 (Q194T2 whole entry): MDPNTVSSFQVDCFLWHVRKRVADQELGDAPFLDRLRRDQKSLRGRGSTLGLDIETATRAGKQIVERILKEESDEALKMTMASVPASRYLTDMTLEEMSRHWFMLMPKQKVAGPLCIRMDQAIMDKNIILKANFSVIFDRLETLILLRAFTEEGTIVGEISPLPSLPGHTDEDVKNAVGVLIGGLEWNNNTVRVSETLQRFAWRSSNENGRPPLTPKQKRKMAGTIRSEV

[1] = antiviral protection against BTV-induced cell death – arbovirus, BSR cells, confirmation (AID 1250); type: functional;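 also: protection from viral cytopathic effect measured as cell viability by ATP luminescence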
cells = type: functional, cell-based
[2] = alpha-synuclein stem-loop translation blockers – luminescence, H4 neuroglioblastoma cells, dose confirmation, confirmation (AID 2454); type: functional, cell-based;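 also: H4 neuroglioblastoma cells carrying an alpha-synuclein 5'UTR luciferase reporter; potency for inhibition of the luciferase signal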
[3] = alpha-synuclein stem-loop luciferase translation blockers – H4 neuroglioma cells, luminescence, confirmation (AID 1988); type: functional, cell-based
[4] = luciferase reporter signal suppression in cells – H4 neuroglioma cells, luminescence, dose response (AID 1990); type: functional, cell-based
[5] = Luminescence Cell-Based Dose Response HTS to Identify Inhibitors of 5'UTR Stem-Loop Driven Prion Protein mRNA Translation in H4 Neuroglioblastoma Cells. [Related pubchem assays: 1827 (Project Summary), 1813 (Primary HTS)]; type: functional
[6] = luciferase reporter signal reduction – luminescence, H4-C neuroglioblastoma cells, dose response (AID 2458); type: functional, cell-based;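 also: H4 neuroglioblastoma cells stably carrying a luciferase reporter gene fusion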
[7] = molecular target: G-protein coupled receptor 55 (Homo sapiens, UniProt Q9Y2T6); experiment: inhibition of LPI-stimulated GPR55 beta-arrestin translocation – imaging, U2OS, beta-arrestin-GFP, LPI agonist, primary screen (AID 2013); type: functional;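 also: antagonist potency measured as reduced agonist-driven arrestin aggregation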
Chain of G-protein coupled receptor 55 (Q9Y2T6 whole entry): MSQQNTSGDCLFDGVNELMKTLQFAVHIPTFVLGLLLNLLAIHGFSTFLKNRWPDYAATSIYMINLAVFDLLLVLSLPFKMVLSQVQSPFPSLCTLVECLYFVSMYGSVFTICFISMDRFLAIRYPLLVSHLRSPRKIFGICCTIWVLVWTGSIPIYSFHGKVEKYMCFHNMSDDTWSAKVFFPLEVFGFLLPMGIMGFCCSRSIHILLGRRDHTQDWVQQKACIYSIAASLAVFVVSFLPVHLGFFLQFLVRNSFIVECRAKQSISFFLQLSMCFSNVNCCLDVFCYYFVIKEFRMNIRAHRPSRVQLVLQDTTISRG

[8] = molecular target: Matrix metalloproteinase-14 (Homo sapiens, UniProt P50281); experiment: Dose Response confirmation of uHTS hits for a small molecule inhibitors of MT1-MMP activation in a fluorescence assay set 2.; type: functional
[9] = mitochondrial function rescue without frataxin homolog – Friedreich's ataxia, plus single-dose screen, dose response (AID 1465); type: functional;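 also: yeast depleted of Yfh1p frataxin homolog grown on glycerol needing respiration; WST-1 tetrazolium dye reduction as measure of cellular dehydrogenase metabolic activity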
[10] = molecular target: T1, Kappa-type opioid receptor (Homo sapiens, UniProt P41145); type: functional
T1 sequence (P41145 whole entry): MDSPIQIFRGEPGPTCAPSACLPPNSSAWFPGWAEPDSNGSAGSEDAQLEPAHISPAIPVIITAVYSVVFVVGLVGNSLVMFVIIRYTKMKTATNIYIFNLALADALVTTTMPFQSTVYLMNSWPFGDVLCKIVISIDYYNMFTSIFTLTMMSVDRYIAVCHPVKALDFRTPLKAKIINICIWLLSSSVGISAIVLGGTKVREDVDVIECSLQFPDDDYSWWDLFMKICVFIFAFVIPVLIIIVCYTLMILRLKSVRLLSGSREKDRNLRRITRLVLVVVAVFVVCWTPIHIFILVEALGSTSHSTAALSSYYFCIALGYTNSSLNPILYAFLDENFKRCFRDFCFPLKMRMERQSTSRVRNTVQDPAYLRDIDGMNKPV

Beta-galactosidase = Beta-galactosidase (Escherichia coli, UniProt Q8VNN2); type: functional
Chain of Beta-galactosidase (Q8VNN2 whole entry): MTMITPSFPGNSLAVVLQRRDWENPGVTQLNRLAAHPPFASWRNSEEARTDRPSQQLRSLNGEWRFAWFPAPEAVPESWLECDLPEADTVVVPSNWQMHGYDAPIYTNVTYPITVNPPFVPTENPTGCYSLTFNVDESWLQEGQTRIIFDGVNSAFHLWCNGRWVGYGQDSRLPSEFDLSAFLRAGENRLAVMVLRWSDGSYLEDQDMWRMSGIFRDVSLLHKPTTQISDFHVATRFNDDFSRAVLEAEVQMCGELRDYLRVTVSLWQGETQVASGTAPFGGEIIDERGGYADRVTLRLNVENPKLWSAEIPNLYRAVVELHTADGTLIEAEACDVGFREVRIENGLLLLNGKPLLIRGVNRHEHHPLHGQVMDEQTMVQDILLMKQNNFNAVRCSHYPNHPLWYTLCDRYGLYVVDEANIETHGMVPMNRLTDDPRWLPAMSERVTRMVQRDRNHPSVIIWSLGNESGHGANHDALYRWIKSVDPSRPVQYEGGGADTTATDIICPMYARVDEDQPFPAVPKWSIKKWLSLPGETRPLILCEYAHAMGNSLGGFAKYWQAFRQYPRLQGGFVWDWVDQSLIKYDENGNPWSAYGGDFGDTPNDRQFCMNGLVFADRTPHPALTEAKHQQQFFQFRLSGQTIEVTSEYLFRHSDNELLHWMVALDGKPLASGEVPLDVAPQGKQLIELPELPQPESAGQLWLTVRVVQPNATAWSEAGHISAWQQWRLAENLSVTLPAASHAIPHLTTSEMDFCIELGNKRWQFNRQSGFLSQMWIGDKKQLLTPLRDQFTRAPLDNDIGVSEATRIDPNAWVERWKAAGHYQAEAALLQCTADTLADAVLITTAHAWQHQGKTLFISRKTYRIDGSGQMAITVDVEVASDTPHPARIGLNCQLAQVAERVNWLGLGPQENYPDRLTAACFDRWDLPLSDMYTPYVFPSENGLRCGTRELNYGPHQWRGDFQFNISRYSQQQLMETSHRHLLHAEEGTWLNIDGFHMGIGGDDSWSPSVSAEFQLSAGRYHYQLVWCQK

[11] = molecular target: T1, Kappa-type opioid receptor; type: functional; remark: listed apart in the source
Streptococcus = experiment: GAS UMAA2166 growth inhibition – luminescence, BacTiterGlo, counter-screen for streptokinase expression inhibitor project, dose response (AID 1915); type: functional, organism-based;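 also: potency for reduction of bacterial viability or growth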
[12] = system: Streptococcus sp. 'group A'; experiment: Streptococcus pyogenes SK(-)GAS viability under kanamycin – luminescence, BacTiterGlo, confirmation, counter-screen for streptokinase expression inhibitor project, dose response (AID 1900); type: functional, organism-based
Streptokinase A = molecular target: T2, Streptokinase A (Streptococcus pyogenes serotype M1, UniProt P10520); experiment: viability-normalized secreted streptokinase activity reduction – plasminogen activation absorbance, OD405, dose response (AID 1914); type: functional, Streptococcus pyogenes M1 GAS;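 also: secreted streptokinase activity via plasminogen activation per viability signal from cell pellet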
T2 sequence (P10520 whole entry): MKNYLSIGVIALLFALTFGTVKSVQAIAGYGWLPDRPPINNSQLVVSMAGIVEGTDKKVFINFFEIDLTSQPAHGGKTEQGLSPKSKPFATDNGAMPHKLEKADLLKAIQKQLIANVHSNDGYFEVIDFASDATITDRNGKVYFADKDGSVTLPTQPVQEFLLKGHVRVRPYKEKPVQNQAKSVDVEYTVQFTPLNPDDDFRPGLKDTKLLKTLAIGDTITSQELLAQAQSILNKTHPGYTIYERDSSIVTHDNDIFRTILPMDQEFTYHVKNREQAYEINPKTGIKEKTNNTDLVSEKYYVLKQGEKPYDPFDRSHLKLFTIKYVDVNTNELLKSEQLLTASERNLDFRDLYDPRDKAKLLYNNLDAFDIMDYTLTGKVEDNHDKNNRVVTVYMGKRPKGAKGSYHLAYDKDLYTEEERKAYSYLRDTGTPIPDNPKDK

Oxytocin receptor = Oxytocin receptor (Homo sapiens, UniProt P30559); experiment: Fluorescence-based cell-based high throughput dose response assay for agonists of the Oxytocin Receptor (OXTR). [Related pubchem assays: 2435 (Primary screen (OXTR agonists in singlicate)), 434991 (Counterscreen (V1R agonists in triplicate)), 2482 (Summary (OXTR agonists)), 434963 (Confirmation screen (OXTR agonists in triplicate))]; type: functional
Chain of Oxytocin receptor (P30559 whole entry, the tested form may be a part): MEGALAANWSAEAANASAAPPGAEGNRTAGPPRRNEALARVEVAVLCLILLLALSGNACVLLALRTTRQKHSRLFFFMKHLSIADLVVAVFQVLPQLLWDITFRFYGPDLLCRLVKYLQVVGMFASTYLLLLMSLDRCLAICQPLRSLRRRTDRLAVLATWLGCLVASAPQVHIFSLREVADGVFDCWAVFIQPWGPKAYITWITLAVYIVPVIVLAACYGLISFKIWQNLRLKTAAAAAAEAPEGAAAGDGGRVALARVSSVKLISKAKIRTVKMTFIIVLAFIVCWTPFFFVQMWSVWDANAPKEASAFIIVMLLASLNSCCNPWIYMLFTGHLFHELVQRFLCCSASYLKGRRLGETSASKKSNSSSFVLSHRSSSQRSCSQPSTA

[13] = molecular target: Photoreceptor-specific nuclear receptor (Homo sapiens, UniProt Q9Y5X4); type: functional, cell-based;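 also: CHO-S cells with Gal4-NCOR and VP16-NR2E3 two-hybrid luciferase reporter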
Chain of Photoreceptor-specific nuclear receptor (Q9Y5X4 whole entry, the tested form may be a part): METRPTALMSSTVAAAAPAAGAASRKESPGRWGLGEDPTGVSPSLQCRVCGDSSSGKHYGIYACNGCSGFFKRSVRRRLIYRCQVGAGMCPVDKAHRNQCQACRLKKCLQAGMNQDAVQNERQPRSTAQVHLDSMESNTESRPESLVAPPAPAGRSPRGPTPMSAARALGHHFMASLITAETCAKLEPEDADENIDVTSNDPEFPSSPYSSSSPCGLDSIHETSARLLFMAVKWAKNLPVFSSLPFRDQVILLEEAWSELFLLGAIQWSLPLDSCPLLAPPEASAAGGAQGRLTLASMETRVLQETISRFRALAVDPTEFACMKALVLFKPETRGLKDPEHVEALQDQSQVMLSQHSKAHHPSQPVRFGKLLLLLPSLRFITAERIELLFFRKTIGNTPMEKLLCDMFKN

Vasopressin V1a receptor = Vasopressin V1a receptor (Homo sapiens, UniProt P37288); experiment: Counterscreen for Oxytocin Receptor (OXTR) agonists: Fluorescence-based cell-based high throughput dose response assay to identify agonists of the vasopressin 1 receptor (V1R). [Related pubchem assays: 2435 (Primary screen (OXTR agonists in singlicate)), 434991 (Counterscreen (V1R agonists in triplicate)), 2482 (Summary (OXTR agonists)) …; type: functional
Chain of Vasopressin V1a receptor (P37288 whole entry): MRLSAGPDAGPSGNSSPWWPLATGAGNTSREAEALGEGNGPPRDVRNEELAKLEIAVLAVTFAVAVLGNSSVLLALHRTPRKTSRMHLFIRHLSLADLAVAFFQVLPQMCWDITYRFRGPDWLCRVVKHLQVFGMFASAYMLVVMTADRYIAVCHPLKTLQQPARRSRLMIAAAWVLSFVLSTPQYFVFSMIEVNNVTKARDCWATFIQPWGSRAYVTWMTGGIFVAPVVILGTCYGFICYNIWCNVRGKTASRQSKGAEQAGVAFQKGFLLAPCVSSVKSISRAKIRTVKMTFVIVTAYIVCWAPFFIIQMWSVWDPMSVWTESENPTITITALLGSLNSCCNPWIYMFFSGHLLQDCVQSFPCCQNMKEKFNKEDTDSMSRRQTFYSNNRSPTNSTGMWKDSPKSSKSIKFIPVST

[14] = molecular target: Neuropeptide Y receptor type 1 (Homo sapiens, UniProt P25929); experiment: Fluorescence-based counterscreen for agonists of NPY-Y2: cell-based high-throughput dose response assay for agonists of NPY-Y1.; type: functional
Chain of Neuropeptide Y receptor type 1 (P25929 whole entry): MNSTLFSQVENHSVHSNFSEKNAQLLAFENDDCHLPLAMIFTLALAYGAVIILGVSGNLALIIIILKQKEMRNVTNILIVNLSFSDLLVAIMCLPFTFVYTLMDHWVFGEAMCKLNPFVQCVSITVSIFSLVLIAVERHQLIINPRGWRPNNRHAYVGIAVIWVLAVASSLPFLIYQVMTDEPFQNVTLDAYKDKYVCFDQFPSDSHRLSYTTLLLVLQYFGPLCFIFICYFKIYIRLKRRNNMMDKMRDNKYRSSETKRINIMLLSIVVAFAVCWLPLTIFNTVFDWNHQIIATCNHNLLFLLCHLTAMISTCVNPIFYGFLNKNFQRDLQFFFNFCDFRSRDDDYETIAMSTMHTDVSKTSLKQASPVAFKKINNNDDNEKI

[15] = molecular target: Neuropeptide Y receptor type 2 (Homo sapiens, UniProt P49146); experiment: Fluorescence-based cell-based high-throughput dose response assay for agonists of NPY-Y2. [Related pubchem assays: 1703 (Screening assay (CNGC inhibitors).), 1359 (Screening assay (NPY-Y2 potentiators or agonists).), 1304 (Screening assay (NPY-Y1 potentiators or agonists).), 1710 (Screening assay (NPY-Y2 agonists).), 1791 (Summary AID.)]; type: functional
Chain of Neuropeptide Y receptor type 2 (P49146 whole entry): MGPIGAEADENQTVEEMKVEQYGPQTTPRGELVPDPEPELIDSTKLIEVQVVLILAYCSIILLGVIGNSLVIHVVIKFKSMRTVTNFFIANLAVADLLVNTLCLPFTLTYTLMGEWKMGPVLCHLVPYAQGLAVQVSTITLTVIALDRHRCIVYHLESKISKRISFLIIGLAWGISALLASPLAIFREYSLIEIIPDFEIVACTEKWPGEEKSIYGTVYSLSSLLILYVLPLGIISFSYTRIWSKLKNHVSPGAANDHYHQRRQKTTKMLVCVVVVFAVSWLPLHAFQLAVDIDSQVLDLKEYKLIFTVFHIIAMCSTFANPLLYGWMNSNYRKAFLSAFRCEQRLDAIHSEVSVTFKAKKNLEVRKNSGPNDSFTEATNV

HEK293 = experiment: Fluorescence-based counterscreen for potentiators or agonists of NPY-Y2: cell-based high-throughput dose response assay to identify inhibitors of cyclic nucleotide gated ion channel (CNGC) activity. In this assay, the parental HEK293 cell line transfected with a cyclic-nucleotide gated ion channel (CNGC)-based cAMP sensor is used to measure inhibition of isoproterenol-induced CNGC activity by test compound.; type: functional; settings: Homo sapiens;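 also: stimulus is 1 µM isoproterenol at EC100 plus PDE inhibitor Ro 20-1724 at 25 µM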

Chain of Cytochrome P450 3A4 (P08684 whole entry): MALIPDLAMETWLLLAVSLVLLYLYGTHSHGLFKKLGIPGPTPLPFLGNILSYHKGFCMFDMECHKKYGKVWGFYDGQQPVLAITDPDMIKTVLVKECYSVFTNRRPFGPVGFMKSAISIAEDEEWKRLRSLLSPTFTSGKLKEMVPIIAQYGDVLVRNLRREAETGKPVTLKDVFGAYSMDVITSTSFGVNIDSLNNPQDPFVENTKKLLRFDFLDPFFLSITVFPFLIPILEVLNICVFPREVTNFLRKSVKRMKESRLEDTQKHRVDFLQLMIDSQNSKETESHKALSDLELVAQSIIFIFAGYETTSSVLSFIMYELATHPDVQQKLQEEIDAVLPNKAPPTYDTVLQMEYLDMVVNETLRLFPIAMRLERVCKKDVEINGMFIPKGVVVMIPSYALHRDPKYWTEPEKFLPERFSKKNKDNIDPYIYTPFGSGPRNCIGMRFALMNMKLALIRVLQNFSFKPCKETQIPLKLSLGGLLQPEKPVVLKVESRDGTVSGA

With CN1C[C@@H]2C(c3ccccc3)C3(c4ccccc4)CC2(C3)[C@H]1c1ccccc1 (stereo not given in full) as the compound, how does the AC50 (Cytochrome P450 3A4) read?
Its AC50 is 5.01 µM (inconclusive).

Which IC50 (H9c2) does the source give for CC(=O)Nc1ccc(C(=O)Nc2nc(-c3ccccn3)cs2)cc1 here?
Its IC50 is > 79 µM (inactive).

And the IC50 (Nonstructural protein 1)?
The IC50 was 7.8 µM (active).

What about the IC50 [1] of the same compound?
The IC50 was 38 µM (active).

What does the source list for CCC(C)(C)c1ccc(Oc2ccc(N)cc2)cc1?
EC50 (cells): 0.482 µM (active); EC50 [2]: 0.476 µM (active); EC50 [3]: < 0.1 µM (active); EC50 [4]: < 0.1 µM (active); EC50 [5]: 0.432 µM (active); EC50 [6]: 0.216 µM (active)

With COc1ccccc1N=Nc1nc(-c2ccccc2)c(-c2ccccc2)[nH]1 as the compound, how does the IC50 [7] read?
The IC50 was 0.587 µM (active).

And the IC50 [8]?
Its IC50 is 36.8 µM (inactive).

What about the EC50 [9] of the same compound?
Its EC50 is > 100 µM (active).

What about the IC50 [10] of the same compound?
Its IC50 is 24 µM (inactive).

What about the EC50 (Beta-galactosidase) of the same compound?
The EC50 was 23.9 µM (active).

And the IC50 [11]?
The IC50 was greater than 32 µM.

What about the EC50 (Streptococcus) of the same compound?
Its EC50 is > 150 µM (not active).

And the EC50 [12]?
The EC50 was 1.97 µM (active).

What about the EC50 (Streptokinase A) of the same compound?
The EC50 was 89.6 µM (active).

Which results are given for Cc1ccccc1Cn1nnc(C(=O)Nc2cccc(C)c2C)c1N?
EC50 (Oxytocin receptor): > 29.9 µM (not active); IC50 [13]: 39.8 µM (inactive); EC50 (Vasopressin V1a receptor): > 29.9 µM (not active)

Which EC50 [14] does the source give for Fc1ccc(Nc2c(-c3ccco3)nc3ccccn23)cc1 here?
The EC50 was 6.46 µM (active).

What about the EC50 [15] of the same compound?
Its EC50 is 10.6 µM (not active).

What about the EC50 (HEK293) of the same compound?
Its EC50 is 17.9 µM (not active).

Source: ChEMBL document CHEMBL1201862, “PubChem BioAssay data set” (2004)
